Laboratory results: ChEMBL document CHEMBL1201862, “PubChem BioAssay data set” (2004)
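Step 1: Grow cells in 96-well plates. Step 2: Expose to compound for 48 hours at 5 concentrations. Step 3: Interpolate endpoints linearly; if unreached, use highest concentration. GI50 marks 50% less growth.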 The source made the active and inactive calls. Rule as the data show it: active = GI50 up to about 1.1 µM and inactive = higher.

Columns and labels:
Experiment in all cases: NCI-60 cell line screen, 48 h
ACHN = test system: ACHN
BT-549 = test system: BT-549
CAKI-1 = test system: CAKI-1
EKVX = test system: EKVX
HL-60 = test system: HL-60
HOP-62 = test system: HOP-62
HOP-92 = test system: HOP-92
K562 = test system: K562
MDA-MB-435 = test system: MDA-MB-435
NCI-H226 = test system: NCI-H226
OVCAR-5 = test system: OVCAR-5
OVCAR-8 = test system: OVCAR-8
SF-539 = test system: SF-539
SNB-19 = test system: SNB-19
UACC-257 = test system: UACC-257
786-0 = test system: 786-0
HCT-116 = test system: HCT-116
OVCAR-4 = test system: OVCAR-4
OVCAR-3 = test system: OVCAR-3
RPMI-8226 = test system: RPMI-8226

Measured: GI50

O=C(CSCC(=O)N/N=C/c1cccc(C(F)(F)F)c1)N/N=C/c1cccc(C(F)(F)F)c1
inactive: ACHN > 100 µM | BT-549 > 100 µM | CAKI-1 > 100 µM | EKVX > 100 µM | HL-60 > 100 µM | HOP-62 > 100 µM | HOP-92 > 100 µM | K562 > 100 µM | MDA-MB-435 > 100 µM | NCI-H226 > 100 µM | OVCAR-5 > 100 µM | OVCAR-8 2.9 µM | SF-539 > 100 µM | SNB-19 > 100 µM | UACC-257 > 100 µM

O=c1c(-c2ccccc2)nnc2n(Cc3ccccc3)c3ccccc3n12
inactive: 786-0 > 100 µM | ACHN > 100 µM | BT-549 > 100 µM | CAKI-1 > 100 µM | EKVX > 100 µM | HCT-116 > 100 µM | HL-60 > 100 µM | HOP-92 28.6 µM | MDA-MB-435 > 100 µM | NCI-H226 22.5 µM | OVCAR-4 > 100 µM | OVCAR-5 > 100 µM | OVCAR-8 > 100 µM | SF-539 94.8 µM | SNB-19 > 100 µM | UACC-257 > 100 µM

O=C(O)c1c[nH]c2c(Sc3ccccc3)nccc2c1=O
inactive: 786-0 > 100 µM | ACHN > 100 µM | BT-549 33 µM | CAKI-1 > 100 µM | EKVX 70.3 µM | HCT-116 > 100 µM | HL-60 78.7 µM | HOP-62 > 100 µM | HOP-92 > 100 µM | MDA-MB-435 > 100 µM | NCI-H226 > 100 µM | OVCAR-3 > 100 µM | OVCAR-4 > 100 µM | OVCAR-5 > 100 µM | OVCAR-8 > 100 µM | SF-539 > 100 µM | SNB-19 > 100 µM | UACC-257 > 100 µM

CCOC(=O)/C(=C\NC(C)(C)CO)c1nc2ccccc2[nH]1
inactive: 786-0 > 100 µM | ACHN 27.2 µM | BT-549 > 100 µM | CAKI-1 > 100 µM | EKVX > 100 µM | HCT-116 > 100 µM | HL-60 44.5 µM | HOP-62 > 100 µM | HOP-92 77.4 µM | K562 75 µM | MDA-MB-435 > 100 µM | OVCAR-3 > 100 µM | OVCAR-4 94 µM | OVCAR-5 > 100 µM | OVCAR-8 74.8 µM | RPMI-8226 30.8 µM | SF-539 > 100 µM | SNB-19 > 100 µM | UACC-257 > 100 µM
